The test system of series [1] is CYP3A4. Conditions: cited from earlier work.
The test system of series [2] is CYP3A. Conditions: cited from earlier work.
Series [3] relates to CYP3A. Conditions: by inhibiting CYP3A activity; cited from earlier work.
A short description of series [4]: Midazolam pharmacokinetics in rats after 7-day MFE or water pre-treatment. The conditions noted are these: rat.
Where [5] appears, read: Sprague Dawley, plasma, po, 15 mg/kg.

Molecules are shown by their SMILES.

What is called Tmax is the time from dosing to the highest level. Broadly, the Cmax is the maximum level reached in the sampled fluid or tissue.

As for `O=C(O[C@@H]1Cc2c(O)cc(O)cc2O[C@@H]1c1cc(O)c(O)c(O)c1)c1cc(O)c(O)c(O)c1` [EGCG, epigallocatechin gallate], in series [1], the “Inhibition of CYP3A4 activity” value was “irreversibly inhibits”. In addition, the “Inhibition of CYP3A activity in human liver microsomes” value in series [2] is “moderately inhibits”. In addition, in series [3], the “Effect on pharmacokinetics of nicardipine in rats” value is reported as “alters the pharmacokinetics of nicardipine”.

As for `Cc1ncc2n1-c1ccc(Cl)cc1C(c1ccccc1F)=NC2` [Midazolam], the Tmax in series [4] (Sprague Dawley, plasma, po) is 15 min; in series [4] (setting [5]), 30 min. For the same molecule, the Cmax came out at 708 ± 91 ng/mL in series [4] (setting [5]) and 919 ± 70 ng/mL in series [4] (midazolam 15 mg/kg oral, control (water pre-treatment 7 days)). Moreover, the “AUC0−∞ higher in MFE pre-treatment group compared to control group” value in series [4] (midazolam 15 mg/kg oral, no significant difference) is 12%.

These data come from paper PMC12117050 (Scientific Reports, 2025).
